IC50 data for 22 molecules are collected here from patent publication US20220144841A1, “TRISUBSTITUTED PYRAZOLO [1,5-A] PYRIMIDINE COMPOUNDS AS CDK7 INHIBITORS” (THE TRANSLATIONAL GENOMICS RESEARCH INSTITUTE, priority 2019, published 2022).

The structures appear in SMILES notation. Counter-ions that a name gives are not always drawn.

In one assay the target is T1, CDK7/CycH/MAT1 (Homo sapiens, UniProt P50613).
T1 construct: purchased ProQinase 0366-0360-4
T1 sequence (P50613 whole entry): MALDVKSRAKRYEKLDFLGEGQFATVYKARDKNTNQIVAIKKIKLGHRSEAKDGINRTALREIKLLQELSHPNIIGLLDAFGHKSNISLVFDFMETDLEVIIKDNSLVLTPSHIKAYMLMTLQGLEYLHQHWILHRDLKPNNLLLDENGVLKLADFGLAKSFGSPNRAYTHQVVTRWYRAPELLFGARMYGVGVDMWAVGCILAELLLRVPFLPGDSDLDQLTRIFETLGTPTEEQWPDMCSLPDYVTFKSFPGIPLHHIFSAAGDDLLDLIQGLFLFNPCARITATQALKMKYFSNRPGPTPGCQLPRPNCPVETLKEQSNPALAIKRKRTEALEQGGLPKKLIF
T1 sequence (P51946 whole entry partner): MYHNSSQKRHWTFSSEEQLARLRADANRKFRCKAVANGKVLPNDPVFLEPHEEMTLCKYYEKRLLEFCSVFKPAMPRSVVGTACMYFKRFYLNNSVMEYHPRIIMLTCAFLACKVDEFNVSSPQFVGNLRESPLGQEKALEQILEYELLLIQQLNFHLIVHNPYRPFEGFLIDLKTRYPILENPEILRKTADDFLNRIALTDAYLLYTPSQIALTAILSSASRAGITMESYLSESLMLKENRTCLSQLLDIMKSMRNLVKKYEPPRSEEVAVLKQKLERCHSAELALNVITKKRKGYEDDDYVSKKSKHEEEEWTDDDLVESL
T1 sequence (P51948 whole entry partner): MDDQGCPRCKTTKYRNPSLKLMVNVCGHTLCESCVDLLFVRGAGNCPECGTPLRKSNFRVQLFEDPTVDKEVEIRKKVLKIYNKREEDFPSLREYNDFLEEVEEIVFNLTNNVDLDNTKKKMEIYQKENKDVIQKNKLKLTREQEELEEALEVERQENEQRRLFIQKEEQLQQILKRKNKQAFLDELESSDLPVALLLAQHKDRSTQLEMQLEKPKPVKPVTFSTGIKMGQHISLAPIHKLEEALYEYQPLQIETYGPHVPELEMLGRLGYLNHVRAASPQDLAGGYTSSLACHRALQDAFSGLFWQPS
Put plainly: Kinase Glo Assay. Particulars: Kinase-Glo Assay was used (compounds marked *), ATP 1 μM, 60 minutes at room temperature. Format: biochemical. The method, then:
(§1) Assay Buffer: 50 mM HEPES, 3 mM MgCl2, 3 mM MnCl2, 1 mM DTT, 3 μM Na3VO4, pH 7.5
Kinase-Glo™ Assay (Promega #: V6711): ATP: 10 mM, Kinase-Glo™ Reagent 384-well white assay plates
A ten point serial dilution of compound was prepared at 5× concentration in assay buffer with the final assay concentrations starting at 30 μM, 10 μM, 3 μM, 1 μM . . . 0 μM. Enzyme and ATP were used at 40 ng and 1 μM, respectively. The assay plate was set up by mixing the components in a total reaction volume of 10 μL per well. The plate was centrifuged gently for 10 seconds and incubated at room temperature (RT) for 60 minutes in the dark. The Kinase-Glo Reagent was added and incubated as recommended. The reaction was quantified by measuring luminescence on the Perkin Elmer Envision plate reader. Data was analyzed using Graphpad Prism 7 software.
Molecule `Clc1cccc(Nc2cc(N[C@H]3CCCNC3)nc3c(Cl)cnn23)c1` [Compound I-1, (S)-3-chloro-N^7-(3 - chlorophenyl)-N^5-(piperidin-3-yl)pyrazolo[1,5-a]pyrimidine-5,7-diamine] yielded an IC50 of 100 to 1000 nM.
Same read-out and setting: the value for `Fc1cccc(Nc2cc(N[C@H]3CCCNC3)nc3c(Cl)cnn23)c1` [Compound I-2, (S)-3-chloro-N^7-(3-fluorophenyl)-N^5-(piperidin-3-yl)pyrazolo[1,5-a]pyrimidine-5,7-diamine] was less than 100 nM; that for `O[C@H]1CCNC[C@@H]1Nc1cc(Nc2cccc(F)c2)n2ncc(Cl)c2n1` [Compound I-3, (3S,4S)-3-((3-chloro-7-((3-fluorophenyl)amino)pyrazolo [1,5-a]pyrimidin-5-yl)amino)piperidin-4-ol] was more than 1000 nM.
In turn, `Fc1cccc(Nc2cc(N[C@H]3CCCCNC3)nc3c(C4CC4)cnn23)c1` [Compound I-5, (S)-N^5-(azepan-3-yl)-3-cyclopropyl-N^7-(3-fluorophenyl)pyrazolo[1,5-a]pyrimidine-5,7-diamine] yielded an IC50 of more than 1000 nM.
On the same count and under the same terms, the result for `Fc1cccc(Nc2cc(N[C@H]3CCCNC3)nc3c(C4CC4)cnn23)c1` [Compound I-19, hydrochloride] reads 100 to 1000 nM; that for `Fc1cccc(Nc2cc(N[C@H]3CCCNC3)nc3c(C4CCC4)cnn23)c1` [Compound I-23, (S)-3-cyclobutyl-N^7-(3-fluorophenyl)-N^5-(piperidin-3-yl)pyrazolo[1,5-a]pyrimidine-5,7-diamine hydrochloride], 100 to 1000 nM; that for `O[C@H]1CCNC[C@@H]1Nc1cc(Nc2cccc(F)c2)n2ncc(C3CCC3)c2n1` [Compound I-24, (3S,4S)-3-((3-cyclobutyl-7-((3-fluorophenyl)amino)pyrazolo [1,5-a]pyrimidin-5-yl)amino)piperidin-4-ol hydrochloride], more than 1000 nM.
The molecule `N#Cc1cnn2c(NCc3cc(Cl)cc(Cl)c3)cc(N[C@H]3CCCNC3)nc12` [Compound I-26, (S)-7-((3,5-dichlorobenzyl)amino)-5-((piperidin-3-yl)amino)pyrazolo[1,5-a]pyrimidine-3-carbonitrile] registered an IC50 of 100 to 1000 nM.
On the same count and under the same terms, the result for `N#Cc1cnn2c(NCc3cc(F)cc(Cl)c3)cc(N[C@H]3CCCNC3)nc12` [Compound I-27, (S)-7-((3-chloro-5-fluorobenzyl)amino)-5-((piperidin-3-yl)amino)pyrazolo[1,5-a]pyrimidine-3-carbonitrile] reads 100 to 1000 nM.
On the same count and under the same terms, the result for `N#Cc1cnn2c(NCc3cccc(Cl)c3)cc(N[C@H]3CCCNC3)nc12` [Compound I-28, (S)-7-((3-chlorobenzyl)amino)-5-((piperidin-3-yl)amino)pyrazolo[1,5-a]pyrimidine-3-carbonitrile] reads 100 to 1000 nM; that for `Fc1cccc(CNc2cc(N[C@H]3CCCNC3)nc3c(C4CC4)cnn23)c1` [Compound I-32, (S)-3-cyclopropyl-N^7-(3-fluorobenzyl)-N^5-(piperidin-3-yl)pyrazolo[1,5-a]pyrimidine-5,7-diamine hydrochloride], 100 to 1000 nM; that for `OCCN1CCC[C@H](Nc2cc(NCc3cccc(F)c3)n3ncc(C4CC4)c3n2)C1` [Compound I-33, (S)-2-(3-((3-cyclopropyl-7-((3-fluorobenzyl)amino)pyrazolo [1,5-a]pyrimidin-5-yl)amino)piperidin-1-yl)ethan-l-ol], 100 to 1000 nM.

The target in another assay is T1, CDK7/CycH/MAT1. The experiment in a line: Kinase ADP-Glo Assay. The assay is classed as biochemical. Particulars: ADP-Glo assay (compounds without *), ATP 1 μM, 60 minutes at room temperature. The method, then: as §1
Substrate RB: CTF Peptide (ProQinase #: 0040-0000-6)
ADP-Glo™ Assay (Promega #: V9101): ATP: 10 mM, ADP-Glo™ Reagent, Kinase Detection Reagent
384-well white assay plates
A ten point serial dilution of compound was prepared at 5× concentration in assay buffer with the final assay concentrations starting at 30 μM, 10 μM, 3 μM, 1 μM . . . 0 μM. Enzyme, substrate, and ATP were used at 40 ng, 200 ng (or 400 ng)^+ and 1 μM, respectively. The assay plate was set up by mixing the components in a total reaction volume of 10 μL per well. The plate was centrifuged gently for 10 seconds and incubated at room temperature (RT) for 60 minutes in the dark. The ADP-Glo Reagent and kinase detection reagent were added and incubated as recommended. The reaction was quantified by measuring luminescence on the Perkin Elmer Envision plate reader. Data was analyzed using Graphpad Prism 7 software. *With CDK2 enzyme, 400 ng of substrate was used.
For `Cc1cc(Nc2cc(O[C@H]3CCCNC3)nc3c(C4CC4)cnn23)cc(C(F)(F)F)c1` [Compound I-61, (S)-3-cyclopropyl-N-(5-methyl-3-trifluoromethylphenyl)-5-((piperidin-3-yl)oxy)pyrazolo[1,5-a]pyrimidin-7-amine], the IC50 was in the range of 100 to 1000 nM.
Same read-out and setting: the value for `Cc1cc(Nc2cc(N[C@H]3CCCNC3)nc3c(C4CC4)cnn23)cc(C(F)(F)F)c1` [Compound I-62, (S)-3-cyclopropyl-N^7-(5-methyl-3-trifluoromethylphenyl)-N^5-(piperidin-3-yl)pyrazolo[1,5-a]pyrimidine-5,7-diamine] was 100 to 1000 nM.
Same read-out and setting: the value for `Cc1cc(Nc2cc(N[C@H]3CCCNC3)nc3c(C4CCC4)cnn23)cc(C(F)(F)F)c1` [Compound I-63, (S)-3-cyclobutyl-N^7-(5-methyl-3-trifluoromethylphenyl)-N^5-(piperidin-3-yl)pyrazolo[1,5-a]pyrimidine-5,7-diamine] was less than 100 nM; that for `Fc1cc(Nc2cc(O[C@H]3CCCNC3)nc3c(C4CC4)cnn23)cc(C(F)(F)F)c1` [Compound I-64, (S)-3-cyclopropyl-N-(5-fluoro-3-trifluoromethylphenyl)-5-((piperidin-3-yl)oxy)pyrazolo[1,5-a]pyrimidin-7-amine] was 100 to 1000 nM; that for `Fc1cc(Nc2cc(O[C@H]3CCCNC3)nc3c(C4CCC4)cnn23)cc(C(F)(F)F)c1` [Compound I-65, (S)-3-cyclobutyl-N-(5-fluoro-3-trifluoromethylphenyl)-5-((piperidin-3-yl)oxy)pyrazolo[1,5-a]pyrimidin-7-amine] was less than 100 nM.
On to `Cc1cc(Nc2cc(O[C@H]3CCCNC3)nc3c(C4CCC4)cnn23)cc(C(F)(F)F)c1` [Compound I-66, (S)-3-cyclobutyl-N-(5-methyl-3-trifluoromethylphenyl)-5-((piperidin-3-yl)oxy)pyrazolo[1,5-a]pyrimidin-7-amine], for which the concentration for half-maximal inhibition (IC50) is less than 100 nM.
Regarding `Cc1cc(C#N)cc(Nc2cc(N[C@H]3CCCNC3)nc3c(C4CC4)cnn23)c1` [Compound I-67, (S)-3-((3-cyclopropyl-5-((piperidin-3-yl)amino)pyrazolo[1,5-a]pyrimidin-7-yl)amino)-5-methylbenzonitrile], the half-maximal inhibitory concentration (IC50) lay in the range of 100 to 1000 nM.
On the same count and under the same terms, the result for `Cc1cc(C#N)cc(Nc2cc(N[C@H]3CCCNC3)nc3c(C4CCC4)cnn23)c1` [Compound I-68, (S)-3-((3-cyclobutyl-5-((piperidin-3-yl)amino)pyrazolo[1,5-a]pyrimidin-7-yl)amino)-5-methylbenzonitrile] reads less than 100 nM; that for `Cc1cc(C#N)cc(Nc2cc(O[C@H]3CCCNC3)nc3c(C4CC4)cnn23)c1` [Compound I-69, (S)-3-((3-cyclopropyl-5-((piperidin-3-yl)oxy)pyrazolo [1,5-a]pyrimidin-7-yl)amino)-5-methylbenzonitrile], less than 100 nM; that for `Cc1cc(C#N)cc(Nc2cc(O[C@H]3CCCNC3)nc3c(C4CCC4)cnn23)c1` [Compound I-70, (S)-3-((3-cyclobutyl-5-((piperidin-3-yl)oxy)pyrazolo[1,5-a]pyrimidin-7-yl)amino)-5-methylbenzonitrile], less than 100 nM.
